This is an account of results in US20150274834A1, “COMBINATION THERAPY OF AN AFUCOSYLATED CD20 ANTIBODY WITH FLUDARABINE AND/OR MITOXANTRONE” (Roche Glycart AG, priority 2009, published 2015).

The subject of assay [1] is human Z138 mantle cell lymphoma xenograft. Description: Tumor growth inhibition study in vivo, Z138 xenograft. On the set-up: species or system SCID beige mice. To be noted: day 36 after tumor cell inoculation; antibodies 1 mg/kg i.v. day 22 and 29; fludarabine 40 mg/kg i.p. day 22-25. As to the method: Antibody buffer included histidine, trehalose and polysorbate 20.
Cells were co-injected with Matrigel.
Experimental study protocol was reviewed and approved by local government. […] Continuous health monitoring was carried out on regular basis. Diet food (Provimi Kliba 3337) and water (acidified pH 2.5-3) were provided ad libitum.
Animals were controlled daily for clinical symptoms and detection of adverse effects.
The corresponding vehicle was administered on the same days.

The test system of a further assay is Granta-519 MCL cells. Description: Trypan blue exclusion viability/proliferation test, Granta-519. Format: cell-based. To be noted: mono-exposure 1 μg/ml. As to the method:
(§1) The following Non-Hodgkin Lymphoma (NHL) cell lines were used in the experiments: Granta-519, HBL-2, Rec-1 and Z-138 as Mantle Cell Lymphoma cell lines and a Karpas-422 as a Diffuse Large B-Cell Lymphoma cell line. All cell lines were obtained from the “Deutsche Sammlung von Mikroorganismen and Zellkulturen GmbH” (DSMZ), Braunschweig, Germany.
(§2) All cell lines were stored according to standard procedures and cultivated at 37° C., 5% CO2- and 95% relative humidity in a CO2 incubator. Granta 519, HBL-2, JeKo-1, Rec-1 and Z-138 were cultivated in RPMI-1640 medium with 10% heat-inactivated FCS and 1% Penicillin/Streptomycin.
(§3) The density of viable cells was determined with BeckmanCoulter ViCell™ Cell Viability Analyzer on the basis of the trypan blue cell exclusion method. The test is based on the principle that viable cells have an intact cell membrane that blocks the uptake of trypan blue whereas dead cells have lost this ability. Therefore viable cells have a transparent cytoplasm whereas dead cells can be identified due to their blue cytoplasm.
(§4) Trypan-blue exclusion tests were used to analyze cell viability.
(§5) These concentrations were determined in pre-experiments on MCL cells • 1. 0.25 μg/ml Fludarabine • 2. 0.25 and 0.5 μg/ml Mitoxantrone
(§6) 1 ml samples were taken at 0 h, 24 h, 48 h, 72 h every day and the number of viable cells was determined. […]

For the next assay, the system named is Rec-1 MCL cells. Description: Trypan blue exclusion viability/proliferation test, Rec-1. The class given is cell-based. The conditions noted are these: mono-exposure 1 μg/ml. On the procedure:
as §1, §2, §3, §4, §5, §6

Another assay deals with HBL-2 MCL cells. The experiment in a line: Trypan blue exclusion viability/proliferation test, HBL-2. The class given is cell-based. The conditions noted are these: mono-exposure 1 μg/ml. As to the method:
as §1, §2, §3, §4, §5, §6

In the next assay the test system is Jeko-1 MCL cells. The experiment in a line: Trypan blue exclusion viability/proliferation test, Jeko-1. To be noted: mono-exposure 1 μg/ml. Format: cell-based. On the procedure:
as §2, §3, §4, §5
1 ml samples were taken at 0 h, 24 h, 48 h, 72 h every day and the number of viable cells was determined. The reduction of cell proliferation was used for a fractional product calculation (synergism >0.1; additive effect −0.1<x<0.1; antagonism <−0.1). Experiments were independently performed three times.

Assay [2] relates to NHL cell lines (Granta-519, HBL-2, Jeko-1, Rec-1, Z-138, Karpas-422). The experiment in a line: Trypan blue exclusion viability/proliferation test, NHL cell line panel. The class given is cell-based. The conditions noted are these: chemotherapeutic alone (Fludarabine 0.25 μg/ml; Mitoxantrone 0.25 and 0.5 μg/ml), across cell lines. An excerpt: The following Non-Hodgkin Lymphoma (NHL) cell lines were used in the experiments: Granta-519, HBL-2, Rec-1 and Z-138 as Mantle Cell Lymphoma cell lines and a Karpas-422 as a Diffuse Large B-Cell Lymphoma cell line. All cell lines were obtained from the “Deutsche Sammlung von Mikroorganismen and Zellkulturen GmbH” (DSMZ), Braunschweig, Germany. […] Granta 519, HBL-2, JeKo-1, Rec-1 and Z-138 were cultivated in RPMI-1640 medium with 10% heat-inactivated FCS and 1% Penicillin/Streptomycin. The density of viable cells was determined with BeckmanCoulter ViCell™ Cell Viability Analyzer on the basis of the trypan blue cell exclusion method. The test is based on the principle that viable cells have an intact cell membrane that blocks the uptake of trypan blue whereas dead cells have lost this ability. Therefore viable cells have a transparent cytoplasm whereas dead cells can be identified due to their blue cytoplasm. […] Trypan-blue exclusion tests were used to analyze cell viability. […] These concentrations were determined in pre-experiments on MCL cells • 1. 0.25 μg/ml Fludarabine • 2. 0.25 and 0.5 μg/ml Mitoxantrone 1 ml samples were taken at 0 h, 24 h, 48 h, 72 h every day and the number of viable cells was determined. […] Experiments were independently performed three times.

In the case of “B-HH6-B-KV1 GE: afucosylated type II anti-CD20 antibody; humanized B-Ly1 IgG1, VH SEQ ID NO: 7 (B-HH6), VL SEQ ID NO: 20 (B-KV1), glycoengineered”, the “tumor growth inhibition compared to the control group” value in assay [1] was 86%. The cell reduction with Granta-519 MCL cells is reported as 65-75%; in the assay on Rec-1 MCL cells, 30-45%; with HBL-2 MCL cells, 20-30%; in the assay with Jeko-1 MCL cells, 5%.
Consider `O=C1c2c(O)ccc(O)c2C(=O)c2c(NCCNCCO)ccc(NCCNCCO)c21` [Mitoxantrone, 1,4-dihydroxy-5,8-bis[2-(2-hydroxyethylamino)ethylamino]-anthracene-9,10-dione], for which, in assay [2], the cell reduction was 80-95%.
